EC50, IC50 and outcome data for 42 compounds are collected here from PubChem BioAssay AID179 (DTP/NCI, 2004).

The structures appear in SMILES notation. “And” between values parts separate entries of the source, which are not always exact repeats. Equal entries are not always repeated. The source made the active and inactive calls.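 Rule for the calls: active = compounds giving half or more protection of infected cells from virus-caused growth loss, again on retest; inactive = the rest.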

The subject of this assay is CEM cells HIV-1 protection, formazan growth assay. As to the kind of experiment: NCI AIDS Antiviral Assay. The conditions noted are these: for IC50: measured here: growth of uninfected CEM cells. The essentials: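 Human CEM cells, uninfected and HIV-1-infected, exposed to five drug concentrations; growth measured by soluble formazan assay and scored as percent protection from infection, with protecting compounds retested.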

As usually defined, the EC50 is the concentration that produces a half-maximal response. As a reminder, the IC50 is the concentration needed to halve the response being measured.

On to `COC(=O)C(C([CH-][N+](=O)[O-])c1ccccc1)[P+](c1ccccc1)(c1ccccc1)c1ccccc1` (configuration not stated), for which the EC50 was greater than 200 µM and the IC50 was found to be 10.7 µM.

Take `COC1(OC)c2occc2C(=N)c2ccc(=O)oc21`: the EC50 was greater than 200 µM and the IC50 was found to be 129 µM.

`COC(=O)/C(=N\NC(N)=S)C(C(=O)OC)C(=O)C(=O)Nc1ccc(C)cc1` (configuration not stated): the EC50 is greater than 66.1 µM and the IC50 is greater than 66.1 µM.

As to `COC1(OC)N=C(N)C2(C#N)C(C)=C3NCN(C)N=C3C12C#N` (configuration not stated), the EC50 is greater than 200 µM and the IC50 is greater than 200 µM.

`COc1ccc(NCc2cc(OC)c(OC)c(OC)c2)cc1`: the EC50 was greater than 2 µM; the half-inhibitory concentration (IC50) was 0.214 µM and 0.316 µM.

Take `CCNCC1c2ccccc2-c2nc3ccccc3nc2-c2ccccc21`: the EC50 is greater than 60.3 µM and the IC50 turned out to be 8.32 µM.

For the compound `Cn1c(-c2ccccc2)cc(-c2ccc3c(c2)OCO3)c1-c1cccs1`, the EC50 was greater than 200 µM and the IC50 was greater than 200 µM.

For `O=c1c2ccccc2c2nccn2c2ccccc12`, the EC50 was 182 µM and the IC50 is greater than 200 µM.

Consider `CCCCCCCCCCCCCCCc1ncc(C)[nH]1`, for which the EC50 was greater than 24.5 µM and the IC50 was greater than 24.5 µM.

Regarding `Cc1ccc(NC(=O)CC(=O)n2nc(C)c(N=Nc3cccc(C)c3)c2C)cc1`, the EC50 is greater than 200 µM and the IC50 was greater than 200 µM.

As to `C[C@]1(O)CC[C@H]2[C@@H]3CC[C@H]4C[C@H](O)[C@@H]5C[C@]4(CO5)[C@H]3CC[C@@]21C`, the EC50 was greater than 110 µM and the IC50 was greater than 110 µM.

Consider `CC(=O)N1C(Nc2ccccn2)CCN1c1ccccc1` (configuration not stated), for which the EC50 was greater than 200 µM and the IC50 was determined as 38 µM.

Consider `CC(NC(=O)C(Cc1ccc(OC(=O)c2ccccc2)cc1)NC(=O)OC(C)(C)C)C(=O)NCC(=O)NC(Cc1ccccc1)C(=O)NN` (configuration not stated), for which the EC50 was greater than 200 µM and the IC50 amounted to 11.7 µM.

Regarding `N#CCCC[P+](c1ccccc1)(c1ccccc1)c1ccccc1`, the EC50 is greater than 200 µM and the IC50 is greater than 200 µM.

On to `O=C(Nc1ccc(Cl)cc1Cl)C1C(=O)N(c2ccc(Cl)cc2Cl)C(=O)/C1=N\Nc1ccc([N+](=O)[O-])cc1[N+](=O)[O-]` (configuration not stated), for which the EC50 is greater than 1.66 µM and the IC50 was greater than 1.66 µM.

Take `CC(Cc1ccccc1)NC(=O)CCNNC(=O)c1ccncc1` (configuration not stated): the EC50 was greater than 200 µM and the IC50 is greater than 200 µM.

Consider `CC(C)(CO)NCC(O)CS(=O)(=O)O` (configuration not stated), for which the EC50 was greater than 200 µM and the IC50 is greater than 200 µM.

For the compound `Nc1nc2c(ncn2C2C=CC(O)CC2)c(=O)[nH]1` (configuration not stated), the EC50 is greater than 55 µM and the IC50 was greater than 55 µM.

`O=S(=O)(c1ccccc1)c1nccs1`: the EC50 is 110 µM and the IC50 is 575 µM.

`COc1ccc(C2Oc3ccc(Cl)cc3C=C2[N+](=O)[O-])cc1OC` (configuration not stated): the EC50 was greater than 2 µM and the IC50 turned out to be 0.724 µM.

As for `COc1cc2c(c(OC)c1OC)C(=O)[C@@H]1[C@H]2N1C(N)=O`, the EC50 is greater than 200 µM and the IC50 was 4.17 µM.

As for `CNC(=S)N/N=C(\C)c1cc(OC)c(OC)cc1O`, the EC50 is greater than 200 µM and the IC50 was greater than 200 µM.

Take `CC/C=C/C(O[Si](C)(C)C(C)(C)C)C1CC2OC(=O)CCCC2O1` (configuration not stated): the EC50 is greater than 708 µM and the IC50 is greater than 708 µM.

Turning to `O=C(O)c1c(-c2ccccc2)nn2c1ccc1ccccc12`, the EC50 is greater than 200 µM and the IC50 is greater than 100 µM.

With `C/C(=C\c1ccccc1)C(O)C(=O)c1nc2ccc(Cl)cc2[nH]c1=O` (configuration not stated), the EC50 is greater than 708 µM and the IC50 was 33.9 µM.

Consider `CC(=O)c1ccc2c(c1)CC1(C2)Cc2cc3c(cc2C1=O)CCC3` (configuration not stated), for which the EC50 was greater than 200 µM and the IC50 came to 14.5 µM.

`S=C(SSC(=S)N(Cc1ccccc1)Cc1ccccc1)N(Cc1ccccc1)Cc1ccccc1`: the EC50 is greater than 200 µM and the IC50 amounted to 15.1 µM.

For the compound `COC1=C(C2=NC(C)(C)CO2)c2ccccc2C(C/C=C/[Si](C)(C)C)C1` (configuration not stated), the EC50 is greater than 26.9 µM and the IC50 was greater than 26.9 µM.

For `CCOC(=O)/C(C#N)=C\c1ccc([N+](=O)[O-])o1`, the EC50 was greater than 1050 µM and the IC50 was greater than 1050 µM.

With `CC(=O)C1N=Nc2nc3c(=O)n(C)c(=O)n(C)c3n2C1=O` (configuration not stated), the EC50 was greater than 200 µM and the IC50 is greater than 200 µM.

For the compound `Cc1[nH]c(=O)nc2nc3cc(Cl)cc(Cl)c3c(NC(C)(CO)CO)c12`, the EC50 was greater than 200 µM and the IC50 was greater than 200 µM.

As for `O=C(c1ccccc1)N1C(=S)N(c2ccc([N+](=O)[O-])cc2)C(=Nc2ccccc2)C1=Nc1ccccc1`, the EC50 is greater than 200 µM and the IC50 is 1 µM.

For the compound `COc1cc2c(cc1OC)C1C3CCCCC3CCN1CC2` (configuration not stated), the EC50 was greater than 200 µM and the IC50 was 138 µM.

As for `c1ccc(Cc2nc(Cc3n[nH]c(Cc4ccccc4)n3)n[nH]2)cc1`, the EC50 was greater than 200 µM and the IC50 is greater than 200 µM.

Take `COc1ccc(OC)c(CCc2cc(OC)c(OC)cc2C)c1`: the EC50 is greater than 58.9 µM and the IC50 came out at 2.82 µM.

Regarding `CCOC(=O)/C(N=Nc1ccc(-n2c(C)nc3ccc(Br)cc3c2=O)cc1)=C(/C)O`, the EC50 is greater than 200 µM and the IC50 was 39.8 µM.

Regarding `CCN(CC)CCNc1ccc([N+](=O)[O-])c2nc3ccc(OC)cc3c(N)c12`, the EC50 was greater than 200 µM and the concentration for half-maximal inhibition (IC50) was 0.331 µM.

In the case of `NC(C/[N+]([O-])=N/O)C(=O)O` (configuration not stated), the EC50 is greater than 11 µM and the half-inhibitory concentration (IC50) is 2.4 µM.

As for `COc1ccc(/C=C/CO)cc1OC`, the outcome was inactive.

As to `O=C(c1ccccc1)c1ccsc1C(=O)O`, the EC50 was greater than 200 µM and the IC50 is greater than 200 µM.

As to `CC[N+]1(C)CCC(O)(c2ccc(C)cc2)C(C(=O)c2ccc(C)cc2)C1` (configuration not stated), the EC50 is greater than 200 µM.

As to `S=C(N/N=C/c1ccccn1)N1CC2CCC(CC2)C1`, the EC50 is greater than 200 µM and the IC50 is 0.0631 µM.
